Test results taken from publication PMC12210912, “Pharmacologic properties and inhibitory activity of 6-azasteroids against Mycobacterium leprae in vivo and in vitro” (Microbiology Spectrum, 2025).

How the values were obtained:
Glucocorticoid Receptor = biological target: T1, Glucocorticoid Receptor (Homo sapiens, UniProt P04150); assay: glucocorticoid receptor radioligand binding inhibition; conditions: [3H]dexamethasone binding, IM-9 cells cytosol
T1 construct: (i) GR (human) IM-9 cells (cytosol); host or cells: IM-9 cells (cytosol)
T1 sequence (P04150 1-777): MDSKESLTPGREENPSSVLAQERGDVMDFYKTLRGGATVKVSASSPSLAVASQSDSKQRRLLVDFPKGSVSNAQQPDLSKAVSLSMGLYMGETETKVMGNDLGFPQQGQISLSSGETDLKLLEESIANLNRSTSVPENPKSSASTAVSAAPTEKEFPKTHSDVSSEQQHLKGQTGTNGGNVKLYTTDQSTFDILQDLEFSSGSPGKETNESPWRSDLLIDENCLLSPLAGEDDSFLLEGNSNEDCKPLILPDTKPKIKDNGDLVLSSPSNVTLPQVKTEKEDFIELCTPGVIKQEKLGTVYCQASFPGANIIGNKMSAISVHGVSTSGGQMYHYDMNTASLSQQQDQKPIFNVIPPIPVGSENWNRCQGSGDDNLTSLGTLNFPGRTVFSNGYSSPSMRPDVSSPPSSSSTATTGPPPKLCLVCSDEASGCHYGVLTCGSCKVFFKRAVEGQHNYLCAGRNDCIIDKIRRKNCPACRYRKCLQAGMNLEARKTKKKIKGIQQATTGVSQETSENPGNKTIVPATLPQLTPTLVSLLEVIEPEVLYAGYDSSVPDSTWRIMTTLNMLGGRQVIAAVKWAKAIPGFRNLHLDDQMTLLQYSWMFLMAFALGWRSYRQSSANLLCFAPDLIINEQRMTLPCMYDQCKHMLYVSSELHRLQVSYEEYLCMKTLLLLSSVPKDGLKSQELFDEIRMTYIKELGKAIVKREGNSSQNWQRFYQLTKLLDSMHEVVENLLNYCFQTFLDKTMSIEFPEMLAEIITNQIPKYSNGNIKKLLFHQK
Method: (§1) Four nuclear receptors: glucocorticoid, androgen, LXRα, and LXRβ were assayed. Inhibition of agonist binding to each of the receptors was carried out following a standard protocol by Eurofins, Inc., USA. Compounds were tested at 10 µM. Compound binding was measured by scintillation counting and was calculated as a % inhibition of the binding of a radioactively labeled ligand specific for each target. Percent inhibition of control specific binding was expressed as
(§2) 100−[(measured specific binding)/(control specific binding)∗100]
(§3) where measured specific binding is the amount of radioactive ligand binding obtained in the presence of test compounds.
(§4) (iii) LXRα (human) recombinant protein expressed in E. coli; agonist radioligand 20 nM [^3H] […] (iv) LXRβ (human) recombinant protein expressed in E. coli; agonist radioligand 20 nM [^3H]

Androgen Receptor = biological target: T2, Androgen Receptor (Homo sapiens, UniProt P10275, T878A); assay: androgen receptor radioligand binding inhibition; conditions: [3H]methyltrienolone binding, LNCaP cells cytosol
T2 construct: (ii) AR (human) LNCaP cells (cytosol); host or cells: LNCaP cells (cytosol)
T2 sequence (P10275 1-920 T878A): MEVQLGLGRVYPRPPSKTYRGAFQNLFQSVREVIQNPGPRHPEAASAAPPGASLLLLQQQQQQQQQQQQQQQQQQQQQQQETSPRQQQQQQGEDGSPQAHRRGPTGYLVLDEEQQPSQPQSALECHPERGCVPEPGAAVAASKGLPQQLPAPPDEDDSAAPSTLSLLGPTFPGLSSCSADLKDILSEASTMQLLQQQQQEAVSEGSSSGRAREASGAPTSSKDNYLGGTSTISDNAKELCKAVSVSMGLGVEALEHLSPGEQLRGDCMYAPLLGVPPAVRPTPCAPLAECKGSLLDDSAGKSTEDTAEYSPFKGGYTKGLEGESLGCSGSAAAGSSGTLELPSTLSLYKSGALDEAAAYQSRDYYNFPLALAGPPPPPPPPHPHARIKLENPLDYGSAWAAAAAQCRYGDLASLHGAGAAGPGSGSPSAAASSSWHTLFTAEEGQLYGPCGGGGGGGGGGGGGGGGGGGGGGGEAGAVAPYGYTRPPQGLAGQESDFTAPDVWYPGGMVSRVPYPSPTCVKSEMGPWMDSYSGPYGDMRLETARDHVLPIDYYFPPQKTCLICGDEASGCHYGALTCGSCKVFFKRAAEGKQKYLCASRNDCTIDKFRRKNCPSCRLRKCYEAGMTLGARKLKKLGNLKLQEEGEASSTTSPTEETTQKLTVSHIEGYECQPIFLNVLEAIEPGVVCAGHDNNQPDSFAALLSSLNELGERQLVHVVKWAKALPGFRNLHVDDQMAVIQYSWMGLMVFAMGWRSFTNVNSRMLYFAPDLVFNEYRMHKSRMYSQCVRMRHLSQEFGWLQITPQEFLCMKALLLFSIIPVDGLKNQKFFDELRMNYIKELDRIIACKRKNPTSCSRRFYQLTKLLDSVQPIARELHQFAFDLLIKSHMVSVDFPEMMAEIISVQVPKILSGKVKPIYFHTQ
Method: as §1, §2, §3, §4

For C[C@]12CCC3C(CNC4=CC(=O)CC[C@@]43C)C1CCC2C(=O)NC(c1ccc(F)cc1)c1ccc(F)cc1 (stereo partly shown) [Compound 5], the “% inhibition observed, Glucocorticoid Receptor” value (Glucocorticoid Receptor; 10 µM) was “moderate”, the inhibition at 10 µM (Glucocorticoid Receptor; read-out: % inhibition observed, Glucocorticoid Receptor) was 46.4% and the “% inhibition observed, Androgen Receptor” value (Androgen Receptor; 10 µM) was “low binding”. The inhibition at 10 µM (Androgen Receptor; read-out: % inhibition observed, Androgen Receptor) was 9.1%.
